{
  "source": "patent US20210332408A1",
  "about": "“SYSTEMS AND METHODS FOR OPTIMIZATION OF ENZYMES” (Vader Nanotechnologies Inc., priority 2020, published 2021)",
  "test_system": "bacterial growth",
  "assay": "Maximum PFNA experiment, image processing of bacterial growth (FIG. 6)",
  "format": "cell-based",
  "details": "FIG. 6, images at T=0, 10, 80 hrs",
  "data": [
    {"smiles": "O=C(O)C(F)(F)C(F)(F)C(F)(F)C(F)(F)C(F)(F)C(F)(F)C(F)(F)C(F)(F)F", "note": "[PFNA Solution, Perfluorononanoic acid (PFNA)]", "values": [
      {"measurement": "bacterial growth with increasing PFNA concentration", "value": "slows bacterial growth"}
    ]}
  ]
}
